This is an account of results in patent US10709132B2, “Microbicidal composition” (DDP SPECIALTY ELECTRONIC MATERIALAS US, INC., priority 2015, dated 2020).

Format in all cases: cell-based
Assay [1] has as its system Aspergillus brasiliensis ATCC #16404. Nature of the assay: Synergy test by MIC in 96 well microtiter plates, mold. The note with it: ATCC16404, 168 h, A. brasiliensis, contact time 7 days, 25° C., potato dextrose broth, read-out: MIC of compound acting alone (CA / CB). The procedure: (§1) DMO with Pine oil was evaluated for synergy by determining the synergy index (S.I.) of the combination. Incubation temperature for bacteria was 30° C. and for fungi was 25° C. Synergy index was calculated based on minimum inhibitory concentrations (MIC) of two antimicrobial compounds (CA and CB) alone and in combinations (Ca and Cb). The test organisms were gram negative bacteria (Pseudomonas aeruginosa ATCC #15442), gram positive bacteria (Staphylococcus aureus ATCC #6538), and yeast (Candida albicans ATCC #10231) and mold (Aspergillus brasiliensis ATCC #16404). The test was carried out in 96 well microtiter plates. Contact time for the bacteria and yeast was 24 and 48 hours, and contact time for mold was 3 and 7 days. […] SI is calculated as follows: Ca/CA+Cb/CB=Synergy Index (“SI”) Wherein: • CA=concentration of compound A in ppm, acting alone, which produced an end point (MIC of Compound A). • Ca=concentration of compound A in ppm, in the mixture, which produced an end point. • CB=concentration of compound B in ppm, acting alone, which produced an end point (MIC of Compound B). • Cb=concentration of compound B in ppm, in the mixture, which produced an end point. When the sum of Ca/CA and Cb/CB is greater than one, antagonism is indicated. […] [table] [table] [table]

Assay [2] deals with Candida albicans ATCC #10231. Nature of the assay: Synergy test by MIC in 96 well microtiter plates, yeast. The note with it: ATCC10231, C. albicans, 25° C., potato dextrose broth, read-out: MIC of compound acting alone (CA / CB). The procedure: as §1
Assay [3] deals with Staphylococcus aureus ATCC #6538. In words: Synergy test by MIC in 96 well microtiter plates, gram positive bacteria. The note with it: ATCC6538, S. aureus, 30° C., 10% tryptic soy broth, read-out: MIC of compound acting alone (CA / CB). The procedure: as §1

Where two headings read alike, the source gives them in different places.

`CC1(C)COCN1` [DMO, 4,4-dimethyloxazolidine]: the MIC came to 500 µg/mL in assay [1]; 1000 µg/mL in assay [2] (contact time 24 hrs); 1000 µg/mL in assay [2] (contact time 48 hrs); 75 µg/mL in assay [3] (contact time 24 hrs); 75 µg/mL in assay [3] (contact time 48 hrs).
